The assay concerns antiserum KLH-R3 (I) (polyclonal anti-Rebaudioside D antibody). Description: Competitive indirect ELISA for Rebaudioside D (conjugate-coated format, antiserum KLH-R3 (I) / BSA-R3 coating conjugate). The class given is binding, rabbit. To be noted: for cross-reactivity CR = (IC50 Rebaudioside D/IC50 compound)×100: developed immunoassay for Reb D. How it is done:
The hapten R1 (rebaudioside D) (5 mg suspended in 0.5 mL of 10 mM PBS) and KLH-conjugates or BSA-R (n=2-5), (0.5 mL of conjugate at a concentration of […], 10 mM PBS) were injected intramuscularly into two New Zealand California white rabbits, with 0.5 mL of complete Freund's adjuvant in the first immunization, and 0.5 mL of incomplete Freund's adjuvant in the following. Immunizations were performed every 21 days, and 10 days after each immunization bleedings were carried out to know the title and properties of serum from each animal. After five cycles of immunization, blood was obtained by bleeding, leaving it to coagulate overnight at 4° C. Subsequently, after adding sodium azide (0.02%) serum was separated by centrifugation and stored at −80° C.
First, the avidity of the sera obtained against different coating conjugates was determined by non-competitive indirect ELISA using different antisera (serial dilutions from 1/1000 to 1/64000) and concentrations of the coating conjugates (0.001 to 1.0 mg/L). Similarly, the avidity to the enzyme-tracer was determined by a direct non-competitive ELISA using several dilutions of the tracer (serial dilutions from 0.001 to 1.0 mg/L) and serum (from 1/500 to 1/512000).
The titres obtained from conjugate-coated format indirect format (ELISA plates coated with protein-hapten) were higher than those obtained for direct format (ELISA plates coated with serum), choosing as optimal concentrations of coating conjugates and dilution of serum, those that produced absorbance values around 0.8-1.2 units in absence of analyte (Rebaudioside D), to carry out competitive tests.
Flat-bottomed polystyrene ELISA plates were coated overnight at 4° C. with 100 μL/well of the appropriate coating conjugate solution in CB. The following day, plates were washed six times with 15 mmol/L PBS-T pH 8.5, and then 50 μL of the serum dilution and 50 μL of Reb D in PBS-T were added and incubated at room temperature during 1 h. After washing, an incubation step (1 h) with 100 μL/well GAR-HRP (diluted 1/2000 in PBS-T) was accomplished, and plates washed again. Finally, 100 μL/well of substrate solution (2 mg/mL OPD and 0.012% H2O2 in 25 mmol/L sodium citrate and 62 mmol/L sodium phosphate, pH 5.5) was added. The enzymatic reaction was stopped after 10 min by addition of 2.5 mol/L H2SO4 (50 μL/well), and the absorbance was read in a dual-wavelength mode (490, 650 nm).
The optimization was performed for the most sensitive assay (antiserum KLH-R3/BSA-R3 coating conjugate) using Reb D as competitor analyte.
The influence of several experimental parameters such as ionic strength, pH, surfactant concentration and time of competition on assay characteristics was examined in order to improve the immunoassay performance (sensitivity, maximum absorbance, working or dynamic range and detection limit). Criteria used to evaluate the assay performances were sensitivity (IC50), maximum absorbance (A0), dynamic range (DR, established between the Reb D concentrations producing 20% and 80% colour inhibition) and limit of detection (LD, estimated at 10% inhibitory concentration).
Assay selectivity was evaluated by determining the cross-reactivity with two sugars derived from Stevia rebaudiana, such as rebaudioside A and stevioside. The cross reactivity values were calculated according to the following equation: CR=(IC50 [mg/L] Rebaudioside D/IC50 [mg/L] compound)×100.

The mark [1] stands for this setting: cross-reactivity study, related compound as competitor.

For orientation: IC50 means the concentration that gives 50% inhibition. Low readings indicate inhibition by little substance, high ones a need for much substance.

Values after ≈ are worked out from the molar mass of the structure shown.

`C=C1C[C@@]23CC[C@H]4[C@@](C)(CCC[C@@]4(C)C(=O)O[C@@H]4O[C@H](CO)[C@@H](O)[C@H](O)[C@H]4O[C@@H]4O[C@H](CO)[C@@H](O)[C@H](O)[C@H]4O)[C@@H]2CC[C@]1(O[C@@H]1O[C@H](CO)[C@@H](O)[C@H](O[C@@H]2O[C@H](CO)[C@@H](O)[C@H](O)[C@H]2O)[C@H]1O[C@@H]1O[C@H](CO)[C@@H](O)[C@H](O)[C@H]1O)C3` [Rebaudioside D]: the IC50 runs as follows: (PBS 5 mmol/L, 0.05% Tween 20, pH 7.5) 1.53 ± 0.41 µg/L (≈ 1.35 nM); (PBS 10 mmol/L, 0.05% Tween 20, pH 7.5) 1.30 ± 0.35 µg/L (≈ 1.15 nM); (PBS 15 mmol/L, 0.05% Tween 20, pH 7.5) 0.77 ± 0.24 µg/L (≈ 0.682 nM); (PBS 20 mmol/L, 0.05% Tween 20, pH 7.5) 1.02 ± 0.28 µg/L (≈ 0.903 nM); (PBS 30 mmol/L, 0.05% Tween 20, pH 7.5) 1.70 ± 0.45 µg/L (≈ 1.51 nM); (Tween 20 0.000%, 15 mM PBS, pH 8.5) 0.68 ± 0.26 µg/L (≈ 0.602 nM). The IC50 (Tween 20 0.010%, 15 mM PBS, pH 8.5) came to 0.56 ± 0.23 µg/L (≈ 0.496 nM); the IC50 (Tween 20 0.025%, 15 mM PBS, pH 8.5) worked out at 0.58 ± 0.19 µg/L (≈ 0.514 nM); the IC50 (Tween 20 0.050%, 15 mM PBS, pH 8.5) turned out to be 0.49 ± 0.15 µg/L (≈ 0.434 nM); the IC50 (Tween 20 0.100%, 15 mM PBS, pH 8.5) was found to be 0.39 ± 0.08 µg/L (≈ 0.345 nM); the IC50 (optimal conditions (15 mM PBS, pH 8.5, 0.25% Tween 20), set of 20 calibration curves) stood at 0.36 ± 0.05 µg/L (≈ 0.319 nM); the IC50 (pH 4.5, 15 mM PBS, 0.05% Tween 20) is 0.63 ± 0.21 µg/L (≈ 0.558 nM). The concentration for half-maximal inhibition (IC50) (pH 5.5, 15 mM PBS, 0.05% Tween 20) came out at 0.86 ± 0.23 µg/L (≈ 0.762 nM); the half-maximal inhibitory concentration (IC50) (pH 6.5, 15 mM PBS, 0.05% Tween 20) worked out at 0.91 ± 0.27 µg/L (≈ 0.806 nM); the concentration for half-maximal inhibition (IC50) (pH 7.5, 15 mM PBS, 0.05% Tween 20) was found to be 0.77 ± 0.24 µg/L (≈ 0.682 nM); the IC50 (pH 8.5, 15 mM PBS, 0.05% Tween 20) worked out at 0.49 ± 0.15 µg/L (≈ 0.434 nM); the half-inhibitory concentration (IC50) (pH 9.5, 15 mM PBS, 0.05% Tween 20) was determined as 0.50 ± 0.19 µg/L (≈ 0.443 nM); the IC50 (serum screening, before optimization, pair KLH-R3 (I)/BSA-R3 (1:2000/0.03 mg/L)) was 1.30 µg/L (≈ 1.15 nM). In addition, the “detection limit (LD, estimated at 10% inhibitory concentration)” value (optimal conditions, 20 calibration curves) is 0.01 µg/L.
Consider `C=C1C[C@@]23CC[C@H]4[C@@](C)(CCC[C@@]4(C)C(=O)O[C@@H]4O[C@H](CO)[C@@H](O)[C@H](O)[C@H]4O)[C@@H]2CC[C@]1(O[C@@H]1O[C@H](CO)[C@@H](O)[C@H](O[C@@H]2O[C@H](CO)[C@@H](O)[C@H](O)[C@H]2O)[C@H]1O[C@@H]1O[C@H](CO)[C@@H](O)[C@H](O)[C@H]1O)C3` [Rebaudioside A], for which the “cross-reactivity CR = (IC50 Rebaudioside D/IC50 compound)×100” value stood at 0.16%. Under setting [1], this compound yielded a 50% inhibitory concentration (IC50) of 225 µg/L (≈ 233 nM).
For `C=C1C[C@@]23CC[C@H]4[C@@](C)(CCC[C@@]4(C)C(=O)O[C@@H]4O[C@H](CO)[C@@H](O)[C@H](O)[C@H]4O)[C@@H]2CC[C@]1(O[C@@H]1O[C@H](CO)[C@@H](O)[C@H](O)[C@H]1O[C@@H]1O[C@H](CO)[C@@H](O)[C@H](O)[C@H]1O)C3` [Stevioside] the same measures were 8.6×10^−5% and 418,605 μg/L.

The record behind these values is US10254278B2, “Method and system for detection of natural high intensity sweeteners that contain hydroxyl groups” (PureCircle Sdn Bhd, priority 2011, dated 2019).
